# What was measured:
# DLBCL cell lines = assay: GEP variations of validated miRNA target genes; type: cell-based, human
# Method: (§1) Total RNA was extracted from 2 DLBCL cell lines, the germinal center B-cell (GCB) type DOHH2 and from the activated B-cell-like (ABC)-type SU-DHL-2, following treatment with compound (1-1) (500 nM) or DMSO for 4 h or 8 h. RNA samples were labeled with cyanine-3 dye using the Agilent microRNA Complete Labeling System & Hyb Kit and hybridized to the Agilent Human microRNA microarray v.3. Raw expression values were obtained with Agilent Feature Extraction Software, log-transformed and normalized by the quantile method. Data were filtered to exclude relatively invariant features and those below the detection threshold. Limma (Linear Models for Microarray data analysis) was employed using R/Bioconductor and the filtered dataset. Baseline miRNA profiling was obtained in 22 DLBCL cell lines with the Nanostring nCounter Human v2 miRNA Expression Assay kit. Baseline gene expression profiling (GEP) was obtained in the 22 cell lines with the Illumina HumanHT-12 v4 Expression BeadChip. Selected miRNA changes were validated by real-time PCR. The miRWalk database (Dweep et al, 2011) was used to retrieve the validated miRNA targets. Gene Set Enrichment Analysis (GSEA) software was used to assess enrichment of miRNA targets in the GEP datasets.
# Total RNA was extracted from 2 diffuse large B-Cell lymphoma (DLBCL) cell lines, the germinal center B-cell (GCB) type DOHH2 and activated B-cell-like (ABC)-type SU-DHL-2, following treatment with 500 nM compound (1-1) or DMSO for 4 h or 8 h. RNA samples were labeled with cyanine-3 dye using the Agilent microRNA Complete Labeling System & Hyb Kit and hybridized to the Agilent Human microRNA microarray v.3. Raw expression values were obtained with Agilent Feature Extraction Software, log-transformed and normalized by the quantile method. Data were filtered to exclude relatively invariant features and those below the detection threshold. Limma was employed using R/Bioconductor and the filtered dataset. Baseline microRNA (abbreviated miRNA) profiling was obtained from 30 B-cell lymphoma cell lines, including 22 DLBCL with the Nanostring nCounter Human v2 miRNA Expression Assay kit. Baseline gene expression profiling (GEP) was obtained with the Illumina HumanHT-12 v4 Expression BeadChip. Selected miRNA changes were validated by real-time PCR. Validated miRNA targets were retrieved using the miRWalk database (Dweep et al, 2011). […] Changes in these miRNAs matched GEP variations of validated target genes (e.g., miR-92a-1-5p: CDKN1A, log 2 FC, 0.81, CDKN2A, log 2 FC, 0.81; miR-96-5p: MYC, log 2 FC, −0.57, MYD88, log 2 FC, −0.35).
# [1] = system: SU-DHL-6, SU-DHL-2 cell lines; assay: Gene expression profiling (GEP), Illumina HumanHT-12; type: cell-based, human; conditions: 500 nM, 1, 2, 4, 8 or 12 hours
# Method: Cell lines: 22 diffuse large B-cell lymphoma (DLBCL), 4 mantle cell lymphomas, 3 multiple myelomas, 3 splenic marginal zone lymphoma and 1 prolymphocytic leukemia. Antiproliferative activity of compound (1-1) (OncoEthix SA, Switzerland) was assessed by MTT and its cytotoxic activity by Annexin V staining and gene expression profiling (GEP) with Illumina HumanHT-12 Expression BeadChips. Data mining was done with LIMMA, GSEA, Metacore. Synergy was assessed in cells (2-5 cell lines) exposed for 72 h to increasing doses of compound (1-1) alone or in combination with increasing doses of other agents. MTT assays were performed and Chou-Talalay combination index (CI) calculated.
# We performed GEP on 2 cell lines (SU-DHL-6, SU-DHL-2), treated with DMSO or compound (1-1) (500 nM) for 1, 2, 4, 8 or 12 hours.
# lymphoma cell lines = assay: Cytotoxic activity (apoptosis) by Annexin V staining; type: cell-based; conditions: 500 nM, 72 h; 14%
# [2] = system: NFKB target genes (IRF4, TNF AIP3 and BIRC3); assay: PCR of NFKB target genes; type: cell-based
# [3] = Oral exposure in the rat (pharmacokinetics); type: in vivo, Sprague Dawley rats; conditions: rats, 1 mg/kg intravenous
# ABC cell lines = assay: Immunoblotting and immunohistochemistry; type: cell-based
# [4] = system: 22 diffuse large B-cell lymphoma (DLBCL), 4 mantle cell lymphomas, 3 multiple myelomas, 3 splenic marginal zone lymphoma and 1 prolymphocytic leukemia cell …; assay: Antiproliferative activity by MTT; type: cell-based; conditions: 500 nM, 72 h; 88%
# Method: (§2) Cell lines: 22 diffuse large B-cell lymphoma (DLBCL), 4 mantle cell lymphomas, 3 multiple myelomas, 3 splenic marginal zone lymphoma and 1 prolymphocytic leukemia. […]. Data mining was done with LIMMA, GSEA, Metacore. Synergy was assessed in cells (2-5 cell lines) exposed for 72 h to increasing doses of compound (1-1) alone or in combination with increasing doses of other agents. MTT assays were performed and Chou-Talalay combination index (CI) calculated.
# [5] = Antiproliferative activity by MTT; type: cell-based; conditions: B-cell
# Method: as §2
# [6] = system: DOHH2 and SU-DHL-2 DLBCL cell lines; assay: miRNA profiling, Agilent Human microRNA microarray; type: cell-based; conditions: 500 nM vs DMSO, 4 h or 8 h
# Method: as §1
# Total RNA was extracted from 2 diffuse large B-Cell lymphoma (DLBCL) cell lines, the germinal center B-cell (GCB) type DOHH2 and activated B-cell-like (ABC)-type SU-DHL-2, following treatment with 500 nM compound (1-1) or DMSO for 4 h or 8 h. RNA samples were labeled with cyanine-3 dye using the Agilent microRNA Complete Labeling System & Hyb Kit and hybridized to the Agilent Human microRNA microarray v.3. Raw expression values were obtained with Agilent Feature Extraction Software, log-transformed and normalized by the quantile method. Data were filtered to exclude relatively invariant features and those below the detection threshold. Limma was employed using R/Bioconductor and the filtered dataset. […]
# IL10 and IL4 production = assay: IL10 and IL4 production; type: cell-based; conditions: after 24 hours treatment
smiles,measurement,setting,value
"Cc1sc2c(c1C)C(c1ccc(Cl)cc1)=N[C@@H](CC(=O)Nc1ccc(O)cc1)c1nnc(C)n1-2 [Compound (1-1), 2-[(6S)-4-(4-chlorophenyl)-2,3,9-trimethyl-6H-thienol[3,2-f]-[1,2,4]triazolo[4,3-a][1,4]diazepin-6-yl]-N-(4-hydroxyphenyl)acetamide dihydrate]","CDKN1A expression (miR-92a-1-5p target), log 2 FC",DLBCL cell lines,0.81 log 2 FC
same,"CDKN2A expression (miR-92a-1-5p target), log 2 FC",DLBCL cell lines,0.81 log 2 FC
same,"MYC expression (miR-96-5p target), log 2 FC",DLBCL cell lines,−0.57 log 2 FC
same,"MYD88 expression (miR-96-5p target), log 2 FC",DLBCL cell lines,−0.35 log 2 FC
same,expression of MYC (GEP),[1],most frequently downregulated gene
same,"expression of MYD88, IRAK1, TLR6, IL6, STAT3, and TNFRSF17 (NFKB, TLR and JAK/STAT pathways)",[1],downregulated
same,expression of histone genes (GEP),[1],upregulated
same,cell lines showing apoptosis,lymphoma cell lines,3/22
same,"expression of NFKB target genes (IRF4, TNF AIP3 and BIRC3)",[2],downregulated
same,CI/F,[3],13.4 mL/min/kg
same,transcriptionally active pSTAT3,ABC cell lines; 2 ABC cell lines,reduction
same,nuclear localization of p50 (NFKB 1),ABC cell lines; ABC cell lines,reduction
same,cell lines showing cytostatic activity,[4],29/33
same,IC50,[5]; cell lines with lower sensitivity (8 of 22 DLBCL cell lines),> 500 nM
same,IC50,[5]; sensitive cell lines (14 of 22 DLBCL cell lines),< 500 nM
same,"miR-21-3p expression, log 2 FC",[6],−0.37 log 2 FC
same,"miR-92a-1-5p expression, log 2 FC",[6],−2.01 log 2 FC
same,"miR-96-5p expression, log 2 FC",[6],0.39 log 2 FC
same,IL10 and IL4 production,IL10 and IL4 production,reduced

# — US9968620B2, “Methods of treating lymphoma using thienotriazolodiazepine compounds” (ONCOETHIX GmbH, priority 2014, dated 2018)
